Measured values from patent US8871713B2, “Formulations of growth hormone releasing factor (GRF) molecules with improved stability” (Theratechnologies Inc., priority 2013, dated 2014).
“Also recorded” adds a separate entry of the source. *1 amine or outer side, *2 acyl side, *3 side chain or, on linkers, in order; H or OH if unused. [ ]: non-standard residue; d: D form. The star is where a group is joined. βAsp = O=C(O)[C@H](CC(=O)[*:2])N[*:1]; Hexenoyl(3E) = CC/C=C/CC(=O)*

Key:
human GRF receptor = target: T1, human GRF receptor (Homo sapiens, UniProt Q02643); experiment: Reporter gene assay in BHK cells (cAMP-inducible alkaline phosphatase); assay type: cell-based; conditions: for Emax / SNR (signal to noise ratio) / EC50: 24 h; for EC50: peptides 10^-5 M to 10^-12 M
T1 construct: expressed in transfected cells
T1 sequence (Q02643 23-423): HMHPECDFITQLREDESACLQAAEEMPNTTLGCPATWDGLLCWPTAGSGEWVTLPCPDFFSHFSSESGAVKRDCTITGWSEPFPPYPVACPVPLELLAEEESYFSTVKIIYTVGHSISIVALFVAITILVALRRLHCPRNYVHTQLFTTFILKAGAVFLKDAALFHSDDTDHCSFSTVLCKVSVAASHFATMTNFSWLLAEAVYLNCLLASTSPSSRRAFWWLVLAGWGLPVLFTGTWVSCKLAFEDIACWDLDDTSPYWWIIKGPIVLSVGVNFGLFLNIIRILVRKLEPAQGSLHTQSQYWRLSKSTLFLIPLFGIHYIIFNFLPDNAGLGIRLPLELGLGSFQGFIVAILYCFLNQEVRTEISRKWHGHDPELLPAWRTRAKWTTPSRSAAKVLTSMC
Procedure: BHK cells stably transfected with the human GRF receptor and an alkaline phosphatase reporter gene were plated in 96-well plates at 5×10^4 cells/well and incubated overnight. The next day, cells were washed twice with PBS and maintained for 10-30 min. in assay buffer (DMEM without phenol red, 20 mM HEPES and 1% heat-inactivated fetal bovine serum (FBS)). Peptides from 10^−5 M to 10^−12 M were added to the cells and incubated for 24 h. The alkaline phosphatase level in the culture supernatants were performed using the Alkaline Phosphatase detection kit from Invitrogen® (cat. #T1017).

GH secretion = experiment: GH response in female Sprague-Dawley rats (plasma GH ELISA); assay type: in vivo, rat; conditions: for GH secretion in rats (in words) / AUC(0-60min) of GH / TMAX of GH / AUC(0-60 min) of GH, fold lower than TH9507 / Cmax of GH, fold lower than TH9507: female rats; for GH secretion in rats (in words) / AUC(0-60 min) of GH, fold lower than TH9507 / Cmax of GH, fold lower than TH9507: 10 μg/rat; for AUC(0-60min) of GH / TMAX of GH: 10 μg/rat subcutaneous, 5% mannitol
Procedure: The reporter gene assay was performed on baby hamster kidney (BHK) cells stably expressing the human GRF receptor and a cAMP-inducible alkaline phosphatase reporter gene; the peptides were tested at concentrations from 1 pM to 10 μM. Acute GH response was measured in blood samples obtained from female rats that were injected with 10 μg/rat peptides in 5% mannitol.
Sprague-Dawley rats (female, 250-300 g) were obtained from Charles River Inc. The animals were kept in groups of 4 rats per cage and were maintained on standard laboratory chow in 12:12 light:dark cycle.
On the day of the experiment, the animals were anesthetized with 2.5% isoflurane. A mid-section opening was made in the neck to expose the carotid artery. The carotid artery was cannulated with polypropylene tube (PE-50) for blood withdrawal. The rats were subcutaneously injected with the peptides (10 μg/rat) dissolved in formulation 5 (20 mM Sodium Acetate, 5% D-mannitol pH 5 (adjusted with AcOH). Blood samples (400 μL) were collected at pre-dose and at 5, 10, 15, 30 and 60 minutes after the injection into microtainer tubes containing K3EDTA and 25 μl of acidified Hank's buffered salt solution (AHBSS). The samples were immediately centrifuged in a microfuge for 2 minutes and the plasma was collected into screwcap Eppendorf™ tubes and quickly frozen in liquid nitrogen. The samples were kept at −80° C.
Rat plasma samples were thawed on ice, vortexed briefly to mix the contents and centrifuged at 9,000 RPM for 2 min at 4° C. GH levels were determined using the Rat/Mouse Growth Hormone ELISA kit from Millipore® (Cat. #EZRMGH-45K). Samples were diluted 10-fold with the assay buffer and 10 μl of the diluted samples were added along with 90 μl of assay buffer to the ELISA plate. The remainder of the assay was performed according to the manufacturer's protocol.
The standard curve was plotted using the 4-parameter logistic equation using GraphPad Prism™ software and was used to determine the GH concentration of plasma samples. The data were analyzed using one-way analysis of variance. Bonferroni's test was used to make comparisons among different treatments.

[1] = Formation of TH0601 from TH05111 or tesamorelin with and without HP-β-CD (FIG. 19); assay type: physicochemical; conditions: 8 mg/mL peptide, 10% HP-β-CD vs 5% mannitol, pH 6
Procedure: Isomerization of Asp^8 in the structure of TH05111 leads to formation of the tesamorelin degradant TH0601, which makes it possible to monitor degradation by using the same chromatographic conditions as for tesamorelin.
The comparison of the kinetics of TH0601 formation in the solutions containing 8 mg/mL of TH05111 or tesamorelin with and without HP-β-CD is shown in FIG. 19.

Row | Molecule | In vitro potency compared to TH9507 (in words) (human GRF receptor) | GH secretion in rats (in words) (GH secretion) | AUC(0-60min) of GH (GH secretion) [ng·min/mL] | TMAX of GH (GH secretion) [min] | EC50 fold higher than TH9507 (human GRF receptor) [fold] | Emax (human GRF receptor) [%] | SNR (signal to noise ratio) (human GRF receptor) | EC50 (human GRF receptor) [nM] | AUC(0-60 min) of GH, fold lower than TH9507 (GH secretion) [fold] | Cmax of GH, fold lower than TH9507 (GH secretion) [fold] | GH-releasing activity in vivo compared to parent molecule (GH secretion; relative to tesamorelin, FIG. 1) [%] | Isomerization of the Asp^8 residue in the presence of HP-β-CD [1]
1 | CC/C=C/CC(=O)N[C@@H](Cc1ccc(O)cc1)C(=O)N[C@@H](C)C(=O)N[C@@H](CC(=O)O)C(=O)N[C@@H](C)C(=O)N[C@H](C(=O)N[C@@H](Cc1ccccc1)C(=O)N[C@H](C(=O)N[C@@H](CC(N)=O)C(=O)N[C@@H](CO)C(=O)N[C@@H](Cc1ccc(O)cc1)C(=O)N[C@@H](CCCNC(=N)N)C(=O)N[C@@H](CCCCN)C(=O)N[C@H](C(=O)N[C@@H](CC(C)C)C(=O)NCC(=O)N[C@@H](CCC(N)=O)C(=O)N[C@@H](CC(C)C)C(=O)N[C@@H](CO)C(=O)N[C@@H](C)C(=O)N[C@@H](CCCNC(=N)N)C(=O)N[C@@H](CCCCN)C(=O)N[C@@H](CC(C)C)C(=O)N[C@@H](CC(C)C)C(=O)N[C@@H](CCC(N)=O)C(=O)N[C@@H](CC(=O)O)C(=O)N[C@H](C(=O)N[C@@H](CC[S+](C)[O-])C(=O)N[C@@H](CO)C(=O)N[C@@H](CCCNC(=N)N)C(=O)N[C@@H](CCC(N)=O)C(=O)N[C@@H](CCC(N)=O)C(=O)NCC(=O)N[C@@H](CCC(=O)O)C(=O)N[C@@H](CO)C(=O)N[C@@H](CC(N)=O)C(=O)N[C@@H](CCC(N)=O)C(=O)N[C@@H](CCC(=O)O)C(=O)N[C@@H](CCCNC(=N)N)C(=O)NCC(=O)N[C@@H](C)C(=O)N[C@@H](CCCNC(=N)N)C(=O)N[C@@H](C)C(=O)N[C@@H](CCCNC(=N)N)C(=O)N[C@@H](CC(C)C)C(N)=O)[C@@H](C)CC)C(C)C)[C@@H](C)O)[C@@H](C)CC (some centres unmarked) [TH0286, N-Hex-hGRF[1-44]Met[O]27 amide] | comparable to TH9507 | not significantly different | 14751 ± 5745 | 10 | – | – | – | – | – | – | – | –
2 | CC/C=C/CC(=O)N[C@@H](Cc1ccc(O)cc1)C(=O)N[C@@H](C)C(=O)N[C@@H](CC(=O)N[C@@H](C)C(=O)N[C@H](C(=O)N[C@@H](Cc1ccccc1)C(=O)N[C@H](C(=O)N[C@@H](CC(N)=O)C(=O)N[C@@H](CO)C(=O)N[C@@H](Cc1ccc(O)cc1)C(=O)N[C@@H](CCCNC(=N)N)C(=O)N[C@@H](CCCCN)C(=O)N[C@H](C(=O)N[C@@H](CC(C)C)C(=O)NCC(=O)N[C@@H](CCC(N)=O)C(=O)N[C@@H](CC(C)C)C(=O)N[C@@H](CO)C(=O)N[C@@H](C)C(=O)N[C@@H](CCCNC(=N)N)C(=O)N[C@@H](CCCCN)C(=O)N[C@@H](CC(C)C)C(=O)N[C@@H](CC(C)C)C(=O)N[C@@H](CCC(N)=O)C(=O)N[C@@H](CC(=O)O)C(=O)N[C@H](C(=O)N[C@@H](CCSC)C(=O)N[C@@H](CO)C(=O)N[C@@H](CCCNC(=N)N)C(=O)N[C@@H](CCC(N)=O)C(=O)N[C@@H](CCC(N)=O)C(=O)NCC(=O)N[C@@H](CCC(=O)O)C(=O)N[C@@H](CO)C(=O)N[C@@H](CC(N)=O)C(=O)N[C@@H](CCC(N)=O)C(=O)N[C@@H](CCC(=O)O)C(=O)N[C@@H](CCCNC(=N)N)C(=O)NCC(=O)N[C@@H](C)C(=O)N[C@@H](CCCNC(=N)N)C(=O)N[C@@H](C)C(=O)N[C@@H](CCCNC(=N)N)C(=O)N[C@@H](CC(C)C)C(N)=O)[C@@H](C)CC)C(C)C)[C@@H](C)O)[C@@H](C)CC)C(=O)O [TH0677, β-Asp^3 tesamorelin] | – | did not produce GH; also recorded: did not stimulate GH secretion; also recorded: biologically inactive | – | – | 71 | 116 ± 25.8 | 25.9 | – | – | – | – | –
3 | CC/C=C/CC(=O)N[C@@H](Cc1ccc(O)cc1)C(=O)N[C@@H](C)C(=O)N[C@H]1CC(=O)N([C@@H](C)C(=O)N[C@H](C(=O)N[C@@H](Cc2ccccc2)C(=O)N[C@H](C(=O)N[C@@H](CC(N)=O)C(=O)N[C@@H](CO)C(=O)N[C@@H](Cc2ccc(O)cc2)C(=O)N[C@@H](CCCNC(=N)N)C(=O)N[C@@H](CCCCN)C(=O)N[C@H](C(=O)N[C@@H](CC(C)C)C(=O)NCC(=O)N[C@@H](CCC(N)=O)C(=O)N[C@@H](CC(C)C)C(=O)N[C@@H](CO)C(=O)N[C@@H](C)C(=O)N[C@@H](CCCNC(=N)N)C(=O)N[C@@H](CCCCN)C(=O)N[C@@H](CC(C)C)C(=O)N[C@@H](CC(C)C)C(=O)N[C@@H](CCC(N)=O)C(=O)N[C@@H](CC(=O)O)C(=O)N[C@H](C(=O)N[C@@H](CCSC)C(=O)N[C@@H](CO)C(=O)N[C@@H](CCCNC(=N)N)C(=O)N[C@@H](CCC(N)=O)C(=O)N[C@@H](CCC(N)=O)C(=O)NCC(=O)N[C@@H](CCC(=O)O)C(=O)N[C@@H](CO)C(=O)N[C@@H](CC(N)=O)C(=O)N[C@@H](CCC(N)=O)C(=O)N[C@@H](CCC(=O)O)C(=O)N[C@@H](CCCNC(=N)N)C(=O)NCC(=O)N[C@@H](C)C(=O)N[C@@H](CCCNC(=N)N)C(=O)N[C@@H](C)C(=O)N[C@@H](CCCNC(=N)N)C(=O)N[C@@H](CC(C)C)C(N)=O)[C@@H](C)CC)C(C)C)[C@@H](C)O)[C@@H](C)CC)C1=O [TH1063, Asu^3 tesamorelin] | – | – | – | – | – | 95.7 ± 8.1 | – | – | – | – | – | –
4 | CC/C=C/CC(=O)N[C@@H](Cc1ccc(O)cc1)C(=O)N[C@@H](C)C(=O)N[C@@H](CC(=O)O)C(=O)N[C@@H](C)C(=O)N[C@H](C(=O)N[C@@H](Cc1ccccc1)C(=O)N[C@H](C(=O)N[C@@H](CC(N)=O)C(=O)N[C@@H](CO)C(=O)N[C@@H](Cc1ccc(O)cc1)C(=O)N[C@@H](CCCNC(=N)N)C(=O)N[C@@H](CCCCN)C(=O)N[C@H](C(=O)N[C@@H](CC(C)C)C(=O)NCC(=O)N[C@@H](CCC(N)=O)C(=O)N[C@@H](CC(C)C)C(=O)N[C@@H](CO)C(=O)N[C@@H](C)C(=O)N[C@@H](CCCNC(=N)N)C(=O)N[C@@H](CCCCN)C(=O)N[C@@H](CC(C)C)C(=O)N[C@@H](CC(C)C)C(=O)N[C@@H](CCC(N)=O)C(=O)N[C@@H](CC(=O)O)C(=O)N[C@H](C(=O)N[C@@H](CCSC)C(=O)N[C@@H](CO)C(=O)N[C@@H](CCCNC(=N)N)C(=O)N[C@@H](CCC(N)=O)C(=O)N[C@@H](CCC(N)=O)C(=O)NCC(=O)N[C@@H](CCC(=O)O)C(=O)N[C@@H](CO)C(=O)N[C@@H](CC(N)=O)C(=O)N[C@@H](CCC(N)=O)C(=O)N[C@@H](CCC(=O)O)C(=O)N[C@@H](CCCNC(=N)N)C(=O)NCC(=O)N[C@@H](C)C(=O)N[C@@H](CCCNC(=N)N)C(=O)N[C@@H](C)C(=O)N[C@@H](CCCNC(=N)N)C(=O)N[C@@H](CC(C)C)C(N)=O)[C@@H](C)CC)C(C)C)[C@@H](C)O)[C@@H](C)CC [TH9507, [trans-3-hexenoyl]hGRF (1-44) amide] | – | – | 18953 ± 6317 | 10 | – | 100 ± 11.3 | 22.3 | – | – | – | – | –
5 | {Hexenoyl(3E)}-YADAIFTDSYRKVLGQLSARKLLQDIMSRQQGESNQERGARARL-NH2 [TH05111, Asp^8 tesamorelin] | comparable to TH9507; also recorded: equipotent | – | 6540 ± 2647 | 5 | – | 114 ± 17 | 25.3 | 0.08 ± 0.02 | 2.9 | 2.2 | ~30 | facilitated
6 | {Hexenoyl(3E)}-YADAIFT[βAsp]SYRKVLGQLSARKLLQDIMSRQQGESNQERGARARL-NH2 [TH0601, β-Asp^8 tesamorelin] | – | biologically inactive | 1533 ± 734 | 5 | 500 | 120 ± 23.5 | 26.9 | 30 ± 30.4 | 12.4 | 14.0 | – | –
